Results as given in ChEMBL document CHEMBL5532635, “The role of natural anti-parasitic guided development of synthetic drugs for leishmaniasis” (Eur J Med Chem, 2023).
In brackets after ≈: the same amount, converted by molar mass.

Experiments:
Type in all cases: functional, organism-based
Leishmania major [1] = assay: Antileishmanial activity against Leishmania major promastigotes assessed as reduction in parasite growth incubated for 72 hrs by MTT assay
Leishmania major [2] = assay: Antileishmanial activity against Leishmania major amastigotes assessed as reduction in parasite growth incubated for 72 hrs by MTT assay
Leishmania amazonensis [3] = assay: Antileishmanial activity against Leishmania amazonensis promastigotes infected in BALB/c mouse assessed as reduction of IgG1 level at 400 mg/kg per day, ip administered for 30 days measured at 10 week by ELISA assay
Leishmania donovani [4] = assay: Antileishmanial activity against Leishmania donovani promastigotes assessed as reduction in parasite growth
Leishmania amazonensis [5] = assay: Antileishmanial activity against Leishmania amazonensis amastigotes assessed as reduction in parasite growth
Leishmania amazonensis [6] = assay: Antileishmanial activity against Leishmania amazonensis promastigotes assessed as reduction in parasite viability after 72 hrs by CCK-8 assay
Leishmania infantum [7] = assay: Antileishmanial activity Leishmania infantum promastigotes assessed as reduction in parasite growth incubated for 72 hrs by alamar blue assay
Leishmania infantum [8] = assay: Antileishmanial activity against Leishmania infantum assessed as reduction in parasite growth
Leishmania infantum [9] = assay: Antileishmanial activity against Leishmania infantum promastigotes assessed as reduction in parasite viability measured after 48 hrs by MTT assay
Leishmania mexicana = assay: Antileishmanial activity against Leishmania mexicana intracellular amastigotes infected in J774 macrophages assessed as reduction in parasite viability after 72 hrs by MTT based analysis; conditions: J774, 72 h
Leishmania donovani [10] = assay: Antileishmanial activity against Leishmania donovani promastigotes assessed as inhibition of parasite growth incubated for 4 hrs by MTT assay
Leishmania infantum [11] = assay: Antileishmanial activity against Leishmania infantum promastigote assessed as reduction in parasite growth after 72 hrs by MTT assay
Leishmania donovani [12] = assay: Antileishmanial activity against Leishmania donovani BHU575 promastigotes assessed as cell viability by MTT assay
Leishmania tropica = assay: Antileishmanial activity against Leishmania tropica promastigotes assessed as inhibition of parasite growth

COc1c2c(cc3c1-c1ccc(OC)c(=O)cc1[C@@H](NC(C)=O)CC3)OCO2
IC50 (Leishmania major [1]): 0.4 µg/mL (≈ 1.04 µM)
IC50 (Leishmania major [2]): 8.7 µg/mL (≈ 22.7 µM)

CC[C@H]1CN2CCc3c([nH]c4ccccc34)[C@@H]2C[C@@H]1/C(=C\OC)C(=O)OC
IC50 (Leishmania amazonensis [3]): 1.65 µM

C=C[C@H]1CN2CCc3c([nH]c4ccccc34)[C@@H]2C[C@@H]1/C(=C\OC)C(=O)OC
IC50 (Leishmania amazonensis [3]): 1.12 µM

CO[C@@H]1C(=O)C[C@H]2O[C@]1(C)n1c3ccccc3c3c4c(c5c6ccccc6n2c5c31)C(=O)NC4
IC50 (Leishmania donovani [4]): > 0.089 µM
IC50 (Leishmania amazonensis [5]): 0.005 µM
IC50 (Leishmania amazonensis [6]): 0.037 µM

C/C(=C\COc1cc(O)cc2oc(=O)ccc12)C/C=C/C(C)(C)OO
EC50 (Leishmania infantum [7]): 20.2 µM

Cc1cc(O)c(C(=O)Nc2ccccc2)c(=O)n1Cc1ccc(Cl)cc1
IC50 (Leishmania infantum [8]): 55 µM

Cc1cc(O)c(C(=O)Nc2ccccc2)c(=O)n1Cc1ccc(F)cc1
IC50 (Leishmania infantum [8]): 55 µM

CCCn1c(C)cc(O)c(C(=O)Nc2ccc(Br)cc2)c1=O
IC50 (Leishmania infantum [8]): 55 µM

COc1c(O[C@@H]2O[C@H](CO)[C@@H](O)[C@H](O)[C@H]2O)cc2c(c1OC)-c1ccc(OC)c(=O)cc1[C@@H](NC(C)=O)CC2
IC50 (Leishmania major [1]): 0.2 µg/mL (≈ 0.365 µM)
IC50 (Leishmania major [2]): 4 µg/mL (≈ 7.31 µM)

Cc1cc(O)c(C(=O)Nc2ccc(Br)cc2)c(=O)n1C1CC1
IC50 (Leishmania infantum [8]): 55 µM

Cc1cc(O)c(C(=O)Nc2ccccc2)c(=O)n1Cc1cccc(Cl)c1Cl
IC50 (Leishmania infantum [8]): 55 µM

COC1=C(C)O[C@H]2C[C@@]1(OC)n1c3ccccc3c3c4c(c5c6ccccc6n2c5c31)C(=O)NC4
IC50 (Leishmania donovani [4]): > 0.089 µM
IC50 (Leishmania amazonensis [6]): 0.0224 µM

CCOC(=O)c1cc2c([nH]c3ccccc32)c(-c2ccccn2)n1
EC50 (Leishmania infantum [9]): 3.36 µM

CCOC(=O)c1cc2c([nH]c3ccccc32)c(-c2cn(-c3ccccc3)nn2)n1
EC50 (Leishmania infantum [9]): 13.6 µM

COc1cc2oc(=O)ccc2c(OC/C=C(\C)C/C=C/C(C)(C)OO)c1OC
EC50 (Leishmania infantum [7]): 26.2 µM

COc1cc(/C=C/C(=O)c2ccc([N+](=O)[O-])cc2)ccc1OCC=C(C)C
IC50 (Leishmania mexicana): 8.22 µM

CCOC(=O)c1cc2c([nH]c3ccccc32)c(-c2cc3ccccc3n3nnnc23)n1
EC50 (Leishmania infantum [9]): 10.2 µM

O=c1c2ccccc2nc(/C=C/c2ccc([N+](=O)[O-])cc2)n1-c1ccccc1
IC50 (Leishmania donovani [10]): 0.021 µM

COc1ccc(Cn2c(C)cc(O)c(C(=O)Nc3ccc(C)cc3)c2=O)cc1
IC50 (Leishmania infantum [8]): 55 µM

C=C[C@@H](c1cc(CC=C(C)C)ccc1O)c1cc(CC=C(C)C)c(OC)cc1O
IC50 (Leishmania amazonensis [5]): 1.13 µM
IC50 (Leishmania amazonensis [6]): 4.5 µM
IC50 (Leishmania infantum [11]): 5.2 µM

COc1cc(/C=C/C(=O)c2cccc([N+](=O)[O-])c2)ccc1OCC=C(C)C
IC50 (Leishmania mexicana): 4.57 µM

COc1cc2c(c(OC)c1OC)-c1ccc(OC)c(=O)cc1[C@@H](NC=O)CC2
IC50 (Leishmania major [2]): 10.2 µg/mL (≈ 26.5 µM)

COc1cc2c(c(OC)c1O)-c1ccc(OC)c(=O)cc1[C@@H](NC(C)=O)CC2 [2-DESMETHYLCOLCHICIN]
IC50 (Leishmania major [1]): 0.5 µg/mL (≈ 1.3 µM)
IC50 (Leishmania major [2]): 10.2 µg/mL (≈ 26.5 µM)

C[C@@H]1[C@H](O)[C@@H](C)/C=C/C=C/C=C/C=C/C=C/C=C/C=C/[C@H](O[C@@H]2O[C@H](C)[C@@H](O)[C@H](N)[C@@H]2O)C[C@@H]2O[C@](O)(C[C@@H](O)C[C@@H](O)[C@H](O)CC[C@@H](O)C[C@@H](O)CC(=O)O[C@H]1C)C[C@H](O)[C@H]2C(=O)O [AMPHOTERICIN B]
IC50 (Leishmania donovani [10]): 0.046 µM

CC1=CCC[C@H]2[C@](C)(CC3=CC(=O)C=CC3=O)[C@@H](C)CC[C@]12C [AVARONE]
IC50 (Leishmania donovani [12]): 28.2 µM
IC50 (Leishmania tropica): 20.3 µM

COc1cc2c(c(OC)c1OC)-c1ccc(OC)c(=O)cc1[C@@H](NC(C)=O)CC2 [COLCHICINE]
IC50 (Leishmania major [1]): 0.5 µg/mL (≈ 1.25 µM)
IC50 (Leishmania major [2]): 10.2 µg/mL (≈ 25.5 µM)

COc1cc2c(c(OC)c1OC)-c1ccc(OC)c(=O)cc1[C@@H](NC(=O)CO)CC2 [COLCHIFOLINE]
IC50 (Leishmania major [1]): 0.7 µg/mL (≈ 1.68 µM)
IC50 (Leishmania major [2]): 14 µg/mL (≈ 33.7 µM)

CC[C@@H]1CN2CCc3c([nH]c4ccccc34)[C@@H]2C[C@@H]1/C(=C\OC)C(=O)OC [CORYNANRHEIDINE]
IC50 (Leishmania amazonensis [3]): 2.81 µM

CN[C@H]1CCc2cc(OC)c(OC)c(OC)c2-c2ccc(OC)c(=O)cc21 [DEMECOLCINE]
IC50 (Leishmania major [1]): 0.7 µg/mL (≈ 1.88 µM)
IC50 (Leishmania major [2]): 14.8 µg/mL (≈ 39.8 µM)

CCCCCCCCCCCCCCCCOP(=O)([O-])OCC[N+](C)(C)C [MILTEFOSINE]
IC50 (Leishmania donovani [10]): 3.19 µM

COc1cc2ccc(=O)oc2cc1OC [SCOPARONE]
EC50 (Leishmania infantum [7]): 5.2 µM
